According to PubChem BioAssay (NCI):
≈ marks a conversion by molar mass, not a printed value. Where “and” joins values, the source holds several entries; their conditions need not be identical. Equal entries are not always repeated.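 Cultured in 96-well plates, cells were exposed to test compound for 48 hours across five concentrations. Here, GI50 denotes the concentration required for 50% inhibition of growth. Definition used: TGI = concentration required for complete inhibition of growth.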

Experiments:
Test in all cases: DTP human tumour cell line panel, 48 h
[1] = system: NCI/ADR-RES ovarian
[2] = system: MDA-N
[3] = system: T-47D breast
[4] = system: DMS 114 small cell lung
[5] = system: DLD-1 colon
[6] = system: XF 498 CNS
[7] = system: LXFL 529 NSCLC
[8] = system: RXF-631 renal
[9] = system: DMS 273 small cell lung

SMILES | GI50 [1] | TGI [1] | TGI [3] | TGI [4] | TGI [5] | TGI [6] [µM] | TGI [7] | GI50 [3] | TGI [9] | further results
Nc1ncn([C@@H]2O[C@H](CO)[C@@H](O)[C@H]2O)c(=O)n1 | 1.2 µM | 10.6 µM |  |  |  |  |  |  |  | 
C=CCC1(c2ccc(OC)cc2)C=CC(=O)CC1 (stereo not drawn) |  | > 100 µM | > 100 µM |  |  |  |  |  |  | TGI [2]: > 100 µM
Cc1cc2c(=O)c3ccccc3[nH]c2c(C(N)=O)c1C |  |  |  | > 100 µM | > 100 µM | > 100 | > 100 µM |  |  | TGI [8]: > 100 µM
COc1cc(N(CCC#N)CCC#N)ccc1/C(N=Nc1ccc(Cl)cc1)=N/NC(=O)c1cc(Br)ccc1O | 53.2 µg/mL | > 150 µg/mL | > 150 µg/mL |  |  |  |  | 69.9 µg/mL |  | GI50 [2]: 90.3 µg/mL (≈ 148 µM); TGI [2]: > 150 µg/mL
CNCCOC(=O)/C=C1\CC[C@H]2[C@@H]([C@@H](O)C(=O)[C@@H]3[C@]2(C)CC[C@H](O)[C@]3(C)C(=O)OC)[C@H]1C | 0.22 µM | 0.444 µM | 1.67 µM |  |  |  |  | 0.33 µM |  | 
N#CNC(=NCc1ccccc1)N(Cc1ccccc1)Cc1ccccc1 |  | > 100 µM | > 100 µM |  |  |  |  |  |  | TGI [2]: > 100 µM
CN(C)CCC(/C=C/c1ccccc1)=N\Nc1ccccc1 |  |  |  | 17.3 µM | 12.5 µM |  | 0.462 µM |  | 6.5 µM | 
CC(=O)ON1CCCC(P(=O)(OCCSC(=O)C(C)(C)C)OCCSC(=O)C(C)(C)C)C1=O (stereo not drawn) | 1.35 µM | 12.4 µM | > 100 µM |  |  |  |  | 2.08 µM |  | 
COc1cc(Cl)cc(-c2nn(-c3cccc(NC(=O)c4ccc(N5CCOCC5)c(C(F)(F)F)c4)c3)cc2-c2ccncc2)c1 | 6.17 µM | > 100 µM | > 100 µM |  |  |  |  | 10.4 µM |  | 
COCC(OC)C(CC=C(C#N)C#N)OC (stereo not drawn) |  |  |  | > 100 µM |  | > 100 | > 100 µM |  | > 100 µM | 
CCOC(=O)c1nc2c(OC)nn(O)cc-2c1[N+](=O)[O-] |  |  |  | 48.4 µM | 33.7 µM | 29.6 | 31 µM |  |  | 
NNC(=O)CNc1cccc(Br)c1 |  | > 100 µM | > 100 µM |  |  |  |  |  |  | TGI [2]: > 100 µM
COc1c(O)c2c(=O)cc3c4c5c(cc(=O)c6c(O)c(OC)c(CC(C)O)c(c(c1CC(C)O)c24)c65)OCO3 (stereo not drawn) |  |  |  |  | 8.39 µM |  | 11.4 µM |  | 3.26 µM | 
N#Cc1nn(-c2cc(=O)[nH]c3ccc(Cl)cc23)c(N)c1C#N | > 100 µM | > 100 µM | > 100 µM |  |  |  |  | 38.9 µM |  | 
COC(=O)/C(C#N)=C1\N=NNN1c1ccc(OC)cc1 |  |  |  | > 100 µM | > 100 µM |  | > 100 µM |  | > 100 µM | TGI [8]: > 100 µM
CCCCCCCCCCCCCCCC(=O)OCCOCCOCCOCc1ccccc1 |  |  |  |  | > 100 µM | > 100 |  |  | > 100 µM | 
CCN1CCN(c2cc(C)c3cc(NC(=O)c4ccc(OC)c(OC)c4)ccc3n2)CC1 | > 49.1 µM | > 100 µM | > 100 µM |  |  |  |  | > 39 µM |  | 

SMILES | GI50 [1] | TGI [1] | TGI [3] | TGI [4] | TGI [5] | TGI [6] [µM] | TGI [7] | GI50 [3] | TGI [9] | further results
Cc1nnc(Nc2ccc(NC(=O)Nc3ccc(Cl)cc3)cc2)c2ccccc12 | 3.63 µM | 14.9 µM | 5.08 µM |  |  |  |  | 2.06 µM |  | 
COC1C(OC(=S)Nc2ccccc2)c2ccccc2N1C(C)=O (stereo not drawn) |  |  |  | > 100 µM | > 100 µM | > 100 | > 100 µM |  | > 100 µM | 
CCOC(=O)N[C@H]1CCc2cc(OC)c(OC)c(OC)c2-c2ccc(SC)c(=O)cc21 | 0.0319 µM | > 100 µM | > 100 µM | < 0.0117 µM | > 100 µM | 29.8 |  |  | > 100 µM | TGI [2]: > 100 µM
NC1CCN(Cc2ccccc2)CC1 | > 100 µM | > 100 µM | > 100 µM |  |  |  |  | > 100 µM |  | 
COC(=O)/C(=C/c1ccc(OC)cc1)C(C(=O)O)=C1CCCC1 |  |  |  |  | > 100 µM | > 100 | > 100 µM |  | > 100 µM | TGI [8]: > 100 µM
O=C(/C=C/c1ccc[nH]1)c1ccc(-n2ccc(C(F)(F)F)n2)cc1 | > 100 µM | > 100 µM | > 100 µM |  |  |  |  | > 40.9 µM |  | 
O=C(Nc1cccc(Cl)c1)C(=O)C(C(=O)c1ccc2ccccc2c1)C1OC(=O)c2ccccc21 (stereo not drawn) |  |  |  | 79.3 µM | 32.7 µM |  | 21.9 µM |  | 89.6 µM | TGI [8]: 81.2 µM
C/C(N=NC(=S)N1CC2CCC(CC2)C1)=C1\C=CC=CN1O |  | 8.73 µM | 94.8 µM | 5.4 µM | > 100 µM | 91.2 |  |  | 24.2 µM | TGI [2]: > 100 µM; TGI [8]: > 100 µM
CCOC(=O)N1CCC(N[C@@H]2c3cc4c(cc3C(c3cc(OC)c(O)c(OC)c3)C3C(=O)OC[C@@H]32)OCO4)CC1 (stereo partly drawn) |  |  |  | 12.4 µM and 4.81 µM | 30.6 µM and 14.3 µM |  | 21.4 µM and > 25 µM |  | 6.03 µM and 9.02 µM | GI50 [4]: 1.9 µM and 0.747 µM; GI50 [9]: 0.18 µM and 1.55 µM
C#CC1/C(=C\C(=O)OC)CCCC1O (stereo not drawn) |  |  |  | > 100 µM | > 100 µM | > 100 | > 100 µM |  | > 100 µM | 
CN(C)C(=S)/N=c1\sn(C)/c(=N\C(=S)N(C)C)n1C |  |  |  |  | > 100 µM | > 100 | > 100 µM |  | > 100 µM | TGI [8]: > 100 µM
c1ccc2c(OCCSCCCCCCCCCCSCCOc3cccc4ccccc34)cccc2c1 |  |  |  | > 100 µM | > 100 µM |  |  |  | > 100 µM | 
CCC(C)(C)c1ccc(OCCCCNC(=O)c2ccc3ccccc3c2O)c(C(C)(C)CC)c1 |  | > 100 µM | > 100 µM |  |  |  |  |  |  | TGI [2]: > 100 µM
CSc1nc(SC)c2c(C#N)[nH]nc2n1 |  |  |  | > 100 µM | > 100 µM | > 100 |  |  | > 100 µM | TGI [8]: > 100 µM
CN1CCN(c2ccc(Nc3cc(-c4cccc(-n5ccc6cc(C7CC7)cc(F)c6c5=O)c4CO)cn(C)c3=O)nc2)CC1 | 8.03 µM | 33.4 µM | 15.9 µM |  |  |  |  | 3.04 µM |  | 
CC12CCC(=O)C[C@H]1CCC(OC=O)C2Br (stereo partly drawn) |  |  |  | > 100 µM | > 100 µM | > 100 | > 100 µM |  | > 100 µM | 
CCn1c(O)c(/C=N/NC(=O)C(C)c2ccc(CC(C)C)cc2)sc1=S (stereo not drawn) | 0.276 µM | > 38.8 µM | > 100 µM |  |  |  |  | 0.56 µM |  | 
